The values that follow come from US10166218B2, “3-(1H-indol-2-yl)-1H-pyrazolo[3,4-C]pyridines and therapeutic uses thereof” (Samumed, LLC, priority 2015, dated 2019).

The term EC50 denotes the concentration needed to bring the measured effect to its halfway point.

Assay [1] deals with primary human fibroblasts derived from IPF patients (LL29 cells) treated with TGF-β1; α-smooth muscle actin (αSMA). Description: Inhibition of the fibrotic process: αSMA staining in TGF-β1 treated primary human fibroblasts from IPF patients (LL29 cells). It counts as cell-based. The conditions noted are these: Fibroblast, 96 h, TGF-β1 20 ng/mL, 4 days; for EC50: % cells positive for αSMA. An outline of the steps:
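Potency reflects suppression of TGF-β1-driven αSMA expression in IPF patient fibroblasts over 4 days. Values are EC50s from normalized αSMA-positive cell counts, with % inhibition at 10 μM when EC50 exceeded 10 μM.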

The test system of the next assay is IL-6 (THP-1 cells). Kind of assay: Inhibition of IL-6 in LPS-stimulated THP-1 human monocyte cells (HTRF). The conditions noted are these: for inhibition at 10 µM: IL-6 assay in LPS-stimulated THP-1 cells, given only where EC50 >10 μM, meaning not given (top concentration 10 μM), read-out: percentage given in parentheses after EC50 >10; for EC50: inhibition of IL-6 in LPS-stimulated THP-1 cells, HTRF, 10-point dose-response starting from 10 μM. It counts as cell-based. An outline of the steps: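 Readout is the 665/620 nm HTRF ratio for secreted IL-6, normalized to DMSO wells, with EC50 from a variable-slope four-parameter fit, or % inhibition at 10 μM when above 10 μM. Cells (1% FBS, 24 h beforehand) got compound for 2 h, then LPS 500 ng/mL for 22 h at 37° C; top dose 10 μM, 0.1% DMSO.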
For orientation: Time-resolved FRET reads energy transfer from a long-lived donor to a nearby acceptor.

`Cc1ccncc1-c1cc2c(-c3cc4c(-c5cccc(F)c5)cccc4[nH]3)n[nH]c2cn1` [Compound 5, 3-(4-(3-Fluorophenyl)-1H-indol-2-yl)-5-(4-methylpyridin-3-yl)-1H-pyrazolo [3,4-c]pyridine] showed an EC50 in assay [1] of 605 nM. Further, in the assay with IL-6 (THP-1 cells), the inhibition at 10 µM was determined as 30.7% and the concentration for a half-maximal effect (EC50) was more than 10000 nM.

`O=C(Nc1cncc(-c2cc3c(-c4cc5c(-c6cccc(F)c6)cccc5[nH]4)n[nH]c3cn2)c1)c1ccccc1` [Compound 11, N-(5-(3-(4-(3-Fluorophenyl)-1H-indol-2-yl)-1H-pyrazolo[3,4-c]pyridin-5-yl)pyridin-3-yl)benzamide]: the results for the EC50 (in assay [1]; with IL-6 (THP-1 cells)) were 873 nM and 3210 nM, respectively.

Take `O=C(Nc1cncc(-c2cc3c(-c4cc5c(-c6cccc(F)c6)cccc5[nH]4)n[nH]c3cn2)c1)C1CCC1` [Compound 21, N-(5-(3-(4-(3-Fluorophenyl)-1H-indol-2-yl)-1H-pyrazolo[3,4-c]pyridin-5-yl)pyridin-3-yl)cyclobutanecarboxamide]: a half-maximal response in assay [1] (EC50) required 1700 nM. For the same compound, in the assay on IL-6 (THP-1 cells), the inhibition at 10 µM came to 0% and the half-maximal effective concentration (EC50) was more than 10000 nM.

With `CC(C)CC(=O)Nc1cncc(-c2cc3c(-c4cc5c(-c6ccc(F)cc6)cccc5[nH]4)n[nH]c3cn2)c1` [Compound 30, N-(5-(3-(4-(4-Fluorophenyl)-1H-indol-2-yl)-1H-pyrazolo[3,4-c]pyridin-5-yl)pyridin-3-yl)-3-methylbutanamide], the concentration giving a half-maximal response (EC50) is 2280 nM in assay [1] and 5130 nM in the assay with IL-6 (THP-1 cells).

As to `CCNCc1cncc(-c2cc3c(-c4cc5c(-c6ccc(F)cc6)cccc5[nH]4)n[nH]c3cn2)c1` [Compound 34, N-((5-(3-(4-(4-Fluorophenyl)-1H-indol-2-yl)-1H-pyrazolo[3,4-c]pyridin-5-yl)pyridin-3-yl)methyl)ethanamine], the EC50 in assay [1] is 29 nM; in the assay on IL-6 (THP-1 cells) it was 399 nM.

`O=C(Cc1ccccc1)Nc1cncc(-c2cc3c(-c4cc5c(-c6ccc(F)cc6)cccc5[nH]4)n[nH]c3cn2)c1` [Compound 38, N-(5-(3-(4-(4-Fluorophenyl)-1H-indol-2-yl)-1H-pyrazolo[3,4-c]pyridin-5-yl)pyridin-3-yl)-2-phenylacetamide]: the concentration for a half-maximal effect (EC50) in assay [1] was 659 nM. Also, in the assay on IL-6 (THP-1 cells), the inhibition at 10 µM amounted to 29.4% and the EC50 is more than 10000 nM.

Take `Fc1ccc(-c2cccc3[nH]c(-c4n[nH]c5cnc(-c6cncc(CN7CCCC7)c6)cc45)cc23)cc1` [Compound 42, 3-(4-(4-Fluorophenyl)-1H-indol-2-yl)-5-(5-(pyrrolidin-1-ylmethyl)pyridin-3-yl)-1H-pyrazolo[3,4-c]pyridine]: the EC50 in assay [1] was found to be 78 nM; with IL-6 (THP-1 cells) it was 3810 nM.

As to `O=C(Nc1cncc(-c2cc3c(-c4cc5c(-c6ccc(F)cc6)cccc5[nH]4)n[nH]c3cn2)c1)C1CCCCC1` [Compound 51, N-(5-(3-(4-(4-Fluorophenyl)-1H-indol-2-yl)-1H-pyrazolo[3,4-c]pyridin-5-yl)pyridin-3-yl)cyclohexanecarboxamide], in assay [1], the concentration giving a half-maximal response (EC50) is 809 nM. Moreover, in the assay with IL-6 (THP-1 cells), the inhibition at 10 µM came to 6.7% and the EC50 is more than 10000 nM.

On to `Fc1ccc(-c2cccc3[nH]c(-c4n[nH]c5cnc(-c6cncnc6)cc45)cc23)cc1` [Compound 55, 3-(4-(4-Fluorophenyl)-1H-indol-2-yl)-5-(pyrimidin-5-yl)-1H-pyrazolo[3,4-c]pyridine], for which the EC50 in assay [1] was 2660 nM; in the assay with IL-6 (THP-1 cells) it was 9590 nM.

As for `Nc1cncc(-c2cc3c(-c4cc5c(-c6ccccc6F)cccc5[nH]4)n[nH]c3cn2)c1` [Compound 59, 5-(3-(4-(2-Fluorophenyl)-1H-indol-2-yl)-1H-pyrazolo[3,4-c]pyridin-5-yl) pyridin-3-amine], the EC50 is 144 nM in assay [1] and 968 nM with IL-6 (THP-1 cells).

On to `CC(C)C(=O)Nc1cncc(-c2cc3c(-c4cc5c(-c6ccccc6F)cccc5[nH]4)n[nH]c3cn2)c1` [Compound 65, N-(5-(3-(4-(2-Fluorophenyl)-1H-indol-2-yl)-1H-pyrazolo[3,4-c]pyridin-5-yl)pyridin-3-yl)isobutyramide], for which a half-maximal response in assay [1] (EC50) required 1110 nM. Further, in the assay with IL-6 (THP-1 cells), the inhibition at 10 µM worked out at 30.1% and the EC50 is more than 10000 nM.

With `Fc1ccccc1-c1cccc2[nH]c(-c3n[nH]c4cnc(-c5cncc(CN6CCCCC6)c5)cc34)cc12` [Compound 71, 3-(4-(2-Fluorophenyl)-1H-indol-2-yl)-5-(5-(piperidin-1-ylmethyl)pyridin-3-yl)-1H-pyrazolo[3,4-c]pyridine], the EC50 was 157 nM in assay [1] and 7660 nM in the assay with IL-6 (THP-1 cells).

With `CCCCC(=O)Nc1cncc(-c2cc3c(-c4cc5c(-c6ccccc6F)cccc5[nH]4)n[nH]c3cn2)c1` [Compound 75, N-(5-(3-(4-(2-Fluorophenyl)-1H-indol-2-yl)-1H-pyrazolo[3,4-c]pyridin-5-yl)pyridin-3-yl)pentanamide], the values for the EC50 (in assay [1]; with IL-6 (THP-1 cells)) were 2030 nM and 3 nM, respectively.

Regarding `O=C(Nc1cncc(-c2cc3c(-c4cc5c(-c6ccccc6F)cccc5[nH]4)n[nH]c3cn2)c1)C1CC1` [Compound 76, N-(5-(3-(4-(2-Fluorophenyl)-1H-indol-2-yl)-1H-pyrazolo[3,4-c]pyridin-5-yl)pyridin-3-yl)cyclopropanecarboxamide], in assay [1], it took 307 nM to reach a half-maximal effect (EC50). In addition, in the assay on IL-6 (THP-1 cells), the inhibition at 10 µM turned out to be 11.1% and the EC50 was more than 10000 nM.

Take `CCC(=O)Nc1cncc(-c2cc3c(-c4cc5c(-c6cccnc6)cccc5[nH]4)n[nH]c3cn2)c1` [Compound 85, N-(5-(3-(4-(Pyridin-3-yl)-1H-indol-2-yl)-1H-pyrazolo[3,4-c]pyridin-5-yl)pyridin-3-yl)propionamide]: the EC50 came to 553 nM in assay [1] and 74 nM in the assay with IL-6 (THP-1 cells).

Consider `c1cncc(-c2cc3c(-c4cc5c(-c6cccnc6)cccc5[nH]4)n[nH]c3cn2)c1` [Compound 88, 5-(Pyridin-3-yl)-3-(4-(pyridin-3-yl)-1H-indol-2-yl)-1H-pyrazolo[3,4-c]pyridine], for which the results for the EC50 (in assay [1]; with IL-6 (THP-1 cells)) were 305 nM and 109 nM, respectively.

With `CC(C)C(=O)Nc1cncc(-c2cc3c(-c4cc5c(-c6cccnc6)cccc5[nH]4)n[nH]c3cn2)c1` [Compound 93, N-(5-(3-(4-(Pyridin-3-yl)-1H-indol-2-yl)-1H-pyrazolo[3,4-c]pyridin-5-yl)pyridin-3-yl)isobutyramide], the EC50 in assay [1] amounted to 298 nM; in the assay with IL-6 (THP-1 cells), 181 nM.

`O=C(Nc1cncc(-c2cc3c(-c4cc5c(-c6cccnc6)cccc5[nH]4)n[nH]c3cn2)c1)c1ccccc1` [Compound 95, N-(5-(3-(4-(Pyridin-3-yl)-1H-indol-2-yl)-1H-pyrazolo[3,4-c]pyridin-5-yl)pyridin-3-yl)benzamide]: the EC50 in assay [1] was 166 nM; in the assay with IL-6 (THP-1 cells), 727 nM.

`c1cncc(-c2cccc3[nH]c(-c4n[nH]c5cnc(-c6cncc(CN7CCCC7)c6)cc45)cc23)c1` [Compound 98, 3-(4-(Pyridin-3-yl)-1H-indol-2-yl)-5-(5-(pyrrolidin-1-ylmethyl)pyridin-3-yl)-1H-pyrazolo[3,4-c]pyridine]: the EC50 in assay [1] was found to be 1610 nM; in the assay on IL-6 (THP-1 cells), 1520 nM.

As for `O=C(Nc1cncc(-c2cc3c(-c4cc5c(-c6cccnc6)cccc5[nH]4)n[nH]c3cn2)c1)C1CC1` [Compound 104, N-(5-(3-(4-(Pyridin-3-yl)-1H-indol-2-yl)-1H-pyrazolo[3,4-c]pyridin-5-yl)pyridin-3-yl)cyclopropanecarboxamide], the EC50 in assay [1] stood at 189 nM; in the assay on IL-6 (THP-1 cells), 226 nM.

As for `Cc1ccncc1-c1cc2c(-c3cc4c(-c5ccncc5)cccc4[nH]3)n[nH]c2cn1` [Compound 117, 5-(4-Methylpyridin-3-yl)-3-(4-(pyridin-4-yl)-1H-indol-2-yl)-1H-pyrazolo [3,4-c]pyridine], the EC50 in assay [1] came out at 1040 nM. In addition, in the assay with IL-6 (THP-1 cells), the inhibition at 10 µM amounted to 53% and the EC50 is more than 10000 nM.

For the compound `CC(C)(C)C(=O)Nc1cncc(-c2cc3c(-c4cc5c(-c6ccncc6)cccc5[nH]4)n[nH]c3cn2)c1` [Compound 120, N-(5-(3-(4-(Pyridin-4-yl)-1H-indol-2-yl)-1H-pyrazolo[3,4-c]pyridin-5-yl)pyridin-3-yl)pivalamide], the EC50 in assay [1] is 1030 nM; in the assay with IL-6 (THP-1 cells), 2500 nM.

Turning to `CC(C)(C)CC(=O)Nc1cncc(-c2cc3c(-c4cc5c(-c6ccncc6)cccc5[nH]4)n[nH]c3cn2)c1` [Compound 128, 3,3-Dimethyl-N-(5-(3-(4-(pyridin-4-yl)-1H-indol-2-yl)-1H-pyrazolo[3,4-c]pyridin-5-yl)pyridin-3-yl)butanamide], the half-maximal effective concentration (EC50) (in assay [1]; in the assay with IL-6 (THP-1 cells)) was more than 10000 nM throughout. Further, the inhibition at 10 µM in assay [1] (αSMA, 10 μM, read-out: percent inhibition at 10 μM (given for EC50 of >10 μM)) worked out at 23.7%; in the assay on IL-6 (THP-1 cells) it was 0%.

As for `O=C(Nc1cncc(-c2cc3c(-c4cc5c(-c6ccncc6)cccc5[nH]4)n[nH]c3cn2)c1)C1CCC1` [Compound 133, N-(5-(3-(4-(Pyridin-4-yl)-1H-indol-2-yl)-1H-pyrazolo[3,4-c]pyridin-5-yl)pyridin-3-yl)cyclobutanecarboxamide], the EC50 in assay [1] was 391 nM; in the assay with IL-6 (THP-1 cells), 251 nM.

Regarding `c1cc(-c2ccncc2)c2cc(-c3n[nH]c4cnc(-c5cncnc5)cc34)[nH]c2c1` [Compound 139, 3-(4-(Pyridin-4-yl)-1H-indol-2-yl)-5-(pyrimidin-5-yl)-1H-pyrazolo[3,4-c]pyridine], a half-maximal response in assay [1] (EC50) required 238 nM. Moreover, in the assay on IL-6 (THP-1 cells), the inhibition at 10 µM was 3% and the EC50 was more than 10000 nM.
